Assay results reported in patent US20090137631A1, “METHODS AND PHARMACEUTICAL COMPOSITIONS FOR REGULATION OF G- AND/OR GC-RICH NUCLEIC ACID EXPRESSION” (NATIONAL YANG-MING UNIVERSITY, priority 2007, published 2009).
Where “and” joins values, the source holds several entries; their conditions need not be identical. Equal entries are not always repeated.

Assays:
[1] = test system: bFGF proteins in U-87 MG cells; assay: Immunofluorescence staining of bFGF protein (FACS and fluorescence microscopy); assay type: cell-based, human
Procedure: U-87 MG cells were treated with indicated concentrations (0, 0.1, 1 and 10 μg/ml) of free-form and liposomal thalidomide and fixed in 4% (w/v) paraformaldehyde (Sigma-Aldrich) in PBS for 15 min, permeabilized with 0.01% (v/v) Triton X-100 (Sigma-Aldrich) or 0.5% (v/v) saponin (Sigma-Aldrich) in PBS for 30 min at room temperature. The cells were subsequently treated with 0.5 μg polyclonal rabbit anti human bFGF antibody (ab16828, Abeam) for 30 min at room temperature, washed, followed by staining with FITC-conjugated goat anti-rabbit IgG (Jackson ImmunoResearch) at 1:200 dilution for 30 min. Hoechst 33258 (Sigma-Aldrich) was used as a nuclear marker. The cells were then washed and visualized using a fluorescence microscope (Olympus Optical Co, Tokyo, Japan) or analyzed using the BD FACSCalibur™ flow cytometer (BD Biosciences). The relative expression level of cellular bFGFs was calculated by normalized the mean fluorescence value of each treatment with the empty liposome treated control. […] Because HMW bFGFs were the major isoforms localized in nucleus (Renko et al., 1990), a decrease of its signal intensity in this compartment might reflect a reduced expression of HMW bFGFs.

U-87 MG cells [2] = assay: Resazurin cell proliferation assay; assay type: cell-based, human; conditions: 0˜100 μg/ml, 72 hr (FIG. 3A)
Procedure: Cell proliferation ability was assayed using a resazurin assay (Nociari et al., 1998), in which resazurin dye was used as a redox indicator to detect cell growth, not cell death. Resazurin sodium (Sigma-Aldrich) stock solution in PBS (5 mM) was prepared, and the working solution (50 μM) was diluted from the stock using DMEM (Gibco) without FBS. Approximately 3000 U-87 MG cells were seeded onto 96-well plates (Costar, Corning), allowed to attach at 37° C. in a humidified incubator of 5% CO2-95% air for 16 hr, and treated with indicated concentrations (0, 0.1, 1, 10, and 100 μg/ml) of free-form and liposomal thalidomide for 72 h. For resazurin assay, the culture medium was removed and freshly diluted resazurin working solution (100 μl) was added into each well. Following incubation at 37° C. in a humidified incubator of 5% CO2-95% air for 2 hr, the resazurin dye was reduced by the activity of living cells, and the reduced form of resazurin was determined at a fluorescence excitation wavelength 530 nm and emission wavelength 590 nm by a Victor 2 1420 Multilable Counter (Wallac, PerkinElmer).

U-87 MG cells [3] = assay: Soft agar colony formation assay (anchorage-independent growth); assay type: cell-based, human; conditions: 2 weeks; for colony-forming ability in soft agar (anchorage-independent growth): 0.1˜10 μg/ml
Procedure: Because bFGF was known to promote cell transformation (Vagner et al., 1996), the soft agar colony formation assay (Murphy et al., 1992) and hanging drop method (Kelm et al., 2003) were used to assess the effects of thalidomide on anchorage-independent and three-dimensional growth abilities of U-87 MG cells, respectively. The colony forming assay was performed according to a two-layer agar technique (Murphy et al., 1992). The bottom layer consisted of 0.3 ml of DMEM with 10% FBS and 0.5% (w/v) agarose (Amresco). Approximately 1000 U-87 MG cells were added to the same medium containing 10% FBS and 0.3%) (w/v) low-melting agarose (Amresco) plus indicated concentrations (0, 0.1, 1 and 10 μg/ml) of free-form thalidomide, and plated in 24-well plates (Costar, Corning) onto the base layer. […] Colony-forming ability (size, >0.1 mm) was measured.

U-87 MG cells [4] = assay: Hanging drop spheroid aggregation assay; assay type: cell-based, human; conditions: 0.1˜10 μg/ml, 48 hr, dose-dependently
Procedure: For hanging drop assay, approximately 1000 U-87 MG cells per 20 μl of cell suspension in culture medium (DMEM with 10% FBS) with indicated concentrations (0, 0.1, 1 and 10 μg/ml) of free-form thalidomide were spotted on the cover of a 6-cm culture dish (Falcon). The cover was returned to its top position with the cell suspension droplet facing down toward the bottom dish, which contained 5 ml of DMEM for maintenance of moisture during incubation. […] Each spheroid was photographed by using phase-contrast microscopy. The aggregation percentage was assayed by calculating the aggregation ability from 20 spheroids for each assay condition. The cell aggregates formed in spheroid culture was abolished by free-form thalidomide dose-dependently (FIG. 3D and FIG. 3E).

bFGF promoter = assay: bFGF promoter-controlled EGFP reporter expression in U87-bFGF-EGFP cells; assay type: cell-based, human; conditions: 0.1˜10 μg/ml, 3 hr, dose-dependent
Procedure: To evaluate the effect of thalidomide on the transcription driven by bFGF promoter, pbFGF-EGFP plasmid, containing bFGF promoter to drive the expression of enhanced green fluorescence protein (EGFP), was stably transfected into U-87 MG to get U87-bFGF-EGFP cell. […] Approximately 2×10^5 U-87 MG cells were plated in 6-well plates (Falcon) 24 hr before transfection and exposed to 3 μg total DNA (plasmid pbFGF-EGFP) and 3 μl Lipofectamine 2000 (Invitrogen Corp.) in DMEM without FBS according to the manufacture's brochure of Lipofectamine 2000. After cultured at 37° C. in a humidified incubator of 5% CO2-95% air for 48 hr, cells were trypsinized and passaged into DMEM with 10% FBS (20× dilutions). Stable transfectants (U87-bFGF-EGFP cells) were selected by using geneticin (800 μg/ml; Merck Biosciences) for 1 month.
U87-bFGF-EGFP cells were treated with indicated concentrations (0, 0.1, 1 and 10 μg/ml) of free-form thalidomide for 3 hr. The fluorescence of EGFP was measured by flow cytometry (FACS Calibur, BD Biosciences). […] The RNA levels of EGFP were analyzed by real-time RT-PCR and GAPDH was used as an internal control.

LMW-IRES = assay: Bicistronic luciferase IRES activity, U87-LMW-IRES cells; assay type: cell-based, human; conditions: 0.1˜10 μg/ml, 12 hr
Source text: (§1) To examine whether the G- and/or GC-rich region in IRES of N-terminal extension of bFGF transcript could also be regulated by thalidomide, plasmids pHMW-IRES and pLMW-IRES (FIG. 5A) were designed using bicistronic vector as previous described (Creancier et al., 2000). There were two luciferase genes, Renilla luciferase (LucR) and firefly luciferase (LucF), which were controlled by the cytomegalovirus (CMV) promoter and separated by the LMW-IRES fragment (SEQ ID NO. 12) and HMW-IRES fragment (SEQ ID NO. 15) in plasmids pLMW-IRES or pHMW-IRES (FIG. 5A), respectively. […] Approximately 2×10^5 U-87 MG cells were plated in 6-well plates (Falcon) 24 hr before transfection and exposed to 3 μg total DNA (plasmid pLMW-IRES or pHMW-IRES) and 3 μl Lipofectamine 2000 (Invitrogen, Carlsbad, USA) in DMEM without FBS according to the manufacture's brochure of Lipofectamine 2000. […]
(§2) U87-LMW-IRES and U87-HMW-IRES cells were treated with indicated concentrations (0, 0.1, 1 and 10 μg/ml) of liposomal thalidomide for 12 hr, and the two luciferase activities were measured in each cell extracts by scintillation counting in a Victor 2 1420 Multilabel Counter (Wallac, PerkinElmer). The IRES activity was determined by calculating the LucR/LucF ratios (the ratio of renilla to firefly luciferase activity) normalized by the untreated control.

HMW-IRES = assay: Bicistronic luciferase IRES activity, U87-HMW-IRES cells; assay type: cell-based, human; conditions: 0.1˜10 μg/ml, 12 hr
Source text: as §1, §2

G-rich bFGF DNA fragment = assay: UV-VIS absorbance of thalidomide after incubation with bFGF DNA fragments; assay type: binding, human; conditions: G-rich fragment (91% GC) versus non-G-rich control fragment (44% GC)
Procedure: The G-rich fragment with 91% GC content and non-G-rich control fragment with 44% GC content were designed from the promoter region of bFGF (FIG. 6A). To examine whether thalidomide could interact preferentially with the G- and/or GC-rich region of bFGF, the ultraviolet-visible (UV-VIS) absorbance of thalidomide was assayed using a Hitachi U2000 Spectrophotometer with the scanning range from 330 to 190 nm. The absorbance of thalidomide would be diminished by bound tightly with the secondary structure of a DNA (Usha et al., 2005).

[5] = test system: bFGF RNA levels in U-87 MG cells
Procedure: The U-87 MG cells were purchased from American Type Culture Collection (ATCC, Rockville, Md.) and maintained in Dulbecco's modified Eagle's medium (DMEM; Gibco) containing 10% heat inactivated fetal bovine serum (FBS; Gibco) and antibiotics, such as penicillin G (Sigma-Aldrich) and streptomycin (Sigma-Aldrich), at 37° C. in a humidified incubator of 5% CO2-95% air. Thalidomide (TYY Biopharm, Taiwan) was dissolved in dimethyl sulfoxide (DMSO; Sigma-Aldrich) first to make a stock solution of 50 mg/ml, and then diluted to various, desired concentrations with medium. The maximum of the final concentration of DMSO in the medium was 0.02%.
Real-time RT-PCR analysis was used to assess the RNA levels of bFGF in U-87 MG cells. After being treated with indicated concentrations (0, 0.1, 1 and 10 μg/ml) of thalidomide for 3 hr and 12 hr, U-87 MG cells were washed twice with ice-cold phosphate buffered saline (PBS) and RNA was extracted by using RNA-Bee™ RNA isolation solvent (Tel-test). Total RNA (5 μg) was used to prepare cDNA by using AMV reverse transcriptase (Promega). The reverse-transcribed cDNA samples were analyzed by real-time PCR using ABI Prism 7700 Sequence Detection System (Applied Biosystems) and the SYBR Green Master Mix kit (Applied Biosystems). […]

[6] = test system: HMW and LMW bFGF isoforms in U-87 MG cells; conditions: 1 and 10 μg/ml, 12 hr
Procedure: Immunoblot (or western blot) analysis was therefore performed to analyze the amount of different bFGF isoforms and GAPDH was used as die internal control, which level would not be affected by thalidomide. After being treated with indicated concentrations (0, 0.1, 1 and 10 μg/ml) of free-form and liposomal thalidomide, U-87 MG cell lysate was prepared using lysis buffer (50 mM Tris [hydroxymethyl] aminomethane (Tris; USB), 1% (v/v) TritonX-100 (Sigma-Aldrich), 150 mM sodium chloride (NaCl; J. T. Baker), 1 mM ethylenediaminetetraacetic acid (EDTA; Sigma-Aldrich), 1 mM phenylmethylsulphonyl fluoride (PMSF; Sigma-Aldrich). Cell lysates (2 μg) containing proteins were separated with using 15% polyacrylamide gel electrophoresis and transferred to a polyvinylidene fluoride (PVDF) membrane (PerkinElmer). The membrane was incubated with polyclonal rabbit anti human bFGF antibody (ab16828, Abeam) at 1:200 dilution or anti-GAPDH antibody (ab9482, Abeam) at 1:10000 dilution, which was used as an internal control, followed by horseradish peroxidase-conjugated anti-IgG secondary antibody (Jackson ImmunoResearch) at 1:5000 dilution. The enhanced chemiluminescent (ECL; PerkinElmer) detection method (Amersham) was used for blotting analysis.

G-rich hTERT promoter = conditions: Drucker et al., 2003; cited from earlier work
[7] = test system: genes with GC-rich promoter; conditions: Drucker et al., 2003; cited from earlier work
[8] = test system: LPS induced TNF-α secretion by monocytes; conditions: Sampaio et al., 1991; cited from earlier work
[9] = clinical daily dose 200 to 800 mg, maximum 1200 mg; cited from earlier work
[10] = Stability of thalidomide in culture medium alone (9 hr pre-incubation, then bFGF transcript readout); conditions: 0.1˜10 μg/ml, 9 hr at 37° C. in culture medium before 3 hr on cells
Procedure: In order to test the stability of thalidomide in the culture medium alone, the thalidomide stock solution was diluted with fresh culture medium to 0.1˜10 μg/ml and incubated at 37° C. in a humidified incubator of 5% CO2-95% air for 9 hr before being added to the U-87 MG cells for 3 hr.

[11] = listed as free-form thalidomide

SMILES: O=C1CCC(N2C(=O)c3ccccc3C2=O)C(=O)N1 (racemic) [thalidomide, 2-(2,6-dioxo-3-piperidinyl)-1H-iso-indole-1,3(2H)-dione]
- total level of bFGF proteins ([1]; FACS, 12 hr (FIG. 2A)): down-regulated
- nuclear level of bFGF proteins ([1]; fluorescence microscopy, 12 hr (FIG. 2B)): down-regulated
- suppression of the proliferation of U-87 MG cells (U-87 MG cells [2]): ineffectiveness
- colony-forming ability in soft agar (anchorage-independent growth) (U-87 MG cells [3]): efficiently inhibited
- colony-forming ability in soft agar (anchorage-independent growth) (U-87 MG cells [3]; [11]): dose-dependent response
- effective concentration on colony-forming ability in soft agar (U-87 MG cells [3]): 0.1 µg/mL
- cell aggregates formed in spheroid culture (U-87 MG cells [4]): efficiently inhibited
- cell aggregates formed in spheroid culture (U-87 MG cells [4]; [11]): abolished
- EGFP fluorescence (flow cytometry) (bFGF promoter): diminish
- EGFP transcripts (real-time RT-PCR) (bFGF promoter): diminish
- LMW-IRES activity (LucR/LucF ratio) (LMW-IRES): down regulated
- LMW-IRES activity (LucR/LucF ratio) (LMW-IRES; listed as Thalidomide): alter the IRES activity in a dose-dependent manner
- HMW-IRES activity (LucR/LucF ratio) (HMW-IRES): down regulated
- HMW-IRES activity (LucR/LucF ratio) (HMW-IRES; listed as Thalidomide): alter the IRES activity in a dose-dependent manner
- quench of the absorbance at 230 nm (G-rich bFGF DNA fragment): more severe quench
- bFGF RNA levels ([5]; 0.1˜10 μg/ml, 3 hr): markedly reduced
- inhibitory effect on bFGF expression (RNA) ([5]; 12 hr treatment): disappeared
- decrease of the HMW bFGFs compared with LMW bFGFs [6]: more dramatic than that of LMW ones
- concentrations used to suppress the G-rich hTERT promoter (G-rich hTERT promoter): 12.5 µg/mL and 25 µg/mL
- concentration down-regulating transcripts levels for genes with GC-rich promoter [7]: over 12.5 μg/ml
- concentration inhibiting LPS induced TNF-α secretion [8]: 0.3 µg/mL
- serum concentration [9]: 1.8 to 10 µg/mL
- activity after incubation in culture media (stability) [10]: completely lost its activity
